Measured values reported in PubChem BioAssay (NCI).
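Five compound concentrations were applied to cells in 96-well plates for 48 hours; endpoints were derived by simple linear interpolation of the resulting dose-response curve. TGI denotes the concentration required for complete inhibition of growth.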

Experiments:
Assay in all cases: DTP human tumour cell line panel, 48 h
[1] = tested on: HL-60(TB) leukemia
[2] = tested on: NCI-H23 lung
[3] = tested on: LOX IMVI melanoma
[4] = tested on: MDA-MB-231 breast
[5] = tested on: RXF 393 renal
[6] = tested on: SK-MEL-28 melanoma
[7] = tested on: M14 melanoma
[8] = tested on: K-562 leukemia
[9] = tested on: IGROV1 ovarian
[10] = tested on: UACC-62 melanoma

Measured: TGI

COc1ccc(/C=C(/C#N)C(N)=O)cc1OC
> 100 µM: all assays above
